Assay results as given in article PMC6327263, “Evaluation of Novel 3-Hydroxyflavone Analogues as HDAC Inhibitors against Colorectal Cancer” (Advances in Pharmacological Sciences, 2018).

System: acetyl histone H3K9
Test: Western blotting, acetyl histone H3K9 expression
Type: cell-based, human
Details: HCT116 cells, 24 h, compared to normal control
Description: After various treatments for 24 h, cells were lysed, and protein quantification of the lysates was estimated using the BCA™ kit (Thermo Fisher Scientific Inc., Waltham, MA, USA). Proteins samples (30 µg) were resolved on a 10% SDS-PAGE and transferred onto a PVDF membrane and blocked with 5% nonfat milk in TBST (tris-buffered saline with Tween-20) buffer for 1 h followed by washing in TBST buffer. The membrane was then probed with primary antibodies (GAPDH, HDAC8, p21^Waf1/Cip1, and acetyl-histone H3[Ac-Lys^9]) and incubated overnight at 4°C. The membrane was washed with TBST buffer and incubated with horseradish peroxidase-conjugated secondary antibody for 1 h at room temperature. Signal was captured using SuperSignal™ West Pico Plus chemiluminescent substrate (Thermo Fischer Scientific Inc., Waltham, MA, USA) on gel documentation system (G : BOX Chemi XRQ, Syngene). The protein band densities were estimated using the software ImageJ (version 1.46r, NIH, Bethesda, MD, USA).

SMILES: Cc1ccc(-c2oc3cc(C)ccc3c(=O)c2O)cc1 [QMJ-5, 3-Hydroxy-7-methyl-2-(4-methylphenyl)-4H-1-benzopyran-4-one]
- expression of acetylated histone H3K9: significant increase
